Assay results from PubChem BioAssay (NCI).
Where “and” joins values, the source holds several entries; their conditions need not be identical. Equal values may be shown once.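 All cell lines were grown in 96-well plates and treated with compound for 48 hours. Abbreviation: GI50, concentration required for 50% inhibition of growth. Definition used: TGI = concentration required for complete inhibition of growth.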

Key:
Experiment in all cases: growth of human tumour cells (NCI), 48 h
SN12C renal = system: SN12C renal
PC-3 prostate = system: PC-3 prostate
HOP-62 NSCLC = system: HOP-62 NSCLC
TK-10 renal = system: TK-10 renal
CCRF-CEM leukemia = system: CCRF-CEM leukemia
OVCAR-3 ovarian = system: OVCAR-3 ovarian
HS 578T breast = system: HS 578T breast
SNB-19 CNS = system: SNB-19 CNS
SF-295 CNS = system: SF-295 CNS
BT-549 breast = system: BT-549 breast

Compound | GI50 (SN12C renal) [µM] | TGI (SN12C renal) | GI50 (PC-3 prostate) [µM] | TGI (PC-3 prostate) [µM] | GI50 (HOP-62 NSCLC) [µM] | TGI (HOP-62 NSCLC) [µM] | GI50 (TK-10 renal) [µM] | TGI (TK-10 renal) [µM] | GI50 (CCRF-CEM leukemia) [µM] | TGI (CCRF-CEM leukemia) | GI50 (OVCAR-3 ovarian) [µM] | TGI (OVCAR-3 ovarian) [µM] | GI50 (HS 578T breast) [µM] | TGI (HS 578T breast) [µM] | GI50 (SNB-19 CNS) [µM] | TGI (SNB-19 CNS) [µM] | GI50 (SF-295 CNS) [µM] | TGI (SF-295 CNS) [µM] | GI50 (BT-549 breast) [µM] | TGI (BT-549 breast)
CCCN1C(=O)N(CCC)C2C1NC(=S)N2/N=C/C=C/c1ccccc1OC (centres undefined) | 1.84 | 33.3 µM | 0.424 | > 100 | 0.713 | > 100 | 12.6 | > 100 | 0.448 | > 100 µM | 0.273 | 0.815 | 0.478 | > 100 | 1.66 | > 100 | 0.487 | 29.4 | 2.77 | 32.9 µM
Oc1cccnc1[Se] |  | > 100 µM |  | > 100 |  | 64.7 |  | > 100 |  | > 100 µM |  | > 100 |  | > 100 |  | > 100 |  | 97.3 |  | > 100 µM
CCn1c2ccccc2c2cc(NC(=O)Nc3ccc([N+](=O)[O-])cc3C)ccc21 | 9.3 | > 100 µM | 2.73 | 10.8 | 5.02 | 55.2 | 3.62 | 15.3 | 1.62 | 4 µM | 3.39 | 19.4 | 2.2 | 8 | 8.95 | > 100 | 2.29 | 9.13 | 2.02 | 6.46 µM
O=C(CSc1nc2ccccc2nc1-c1ccccc1)Nc1ccc(F)cc1 | 36.5 | > 100 µM | 38.9 | > 100 | 32.6 | > 100 | 41.1 | > 100 | > 100 | > 100 µM | 28 | > 100 | 28.1 | 63.8 | 34.5 | > 100 | 40.6 | > 100 | 24.6 | 66.5 µM
COc1cc(-c2cc(-c3cc4c([nH]c5ccccc54)c(-c4cc(OC)c(OC)c(OC)c4)n3)cc(-c3ccccc3)n2)cc(OC)c1OC | 4.08 | > 100 µM | 3.59 | 32.3 | 4.53 | > 100 | 4.5 | 31.2 | 3.6 | > 100 µM | 3.9 | 17.3 | 6.09 | > 100 | 9.92 | > 100 |  |  | 6.74 | 91.2 µM
NCCNc1c2c(c(NCCN)c3[nH]ccc13)C(=O)c1ccccc1C2=O | 0.0978 | 0.994 µM | 0.631 | 2.45 |  | 0.624 | 0.145 | 0.682 | < 0.01 | 0.163 µM | < 0.0489 | 0.251 | 0.012 | 0.219 | 0.206 | 1.12 | < 0.0341 | 0.352 | 1.22 | 2.62 µM
O=C(O)Cc1cc(Cl)ccc1O |  | > 100 µM |  | > 100 |  | > 100 |  | > 100 |  | > 100 µM |  | > 100 |  | > 100 |  | > 100 |  | > 100 |  | > 100 µM
C=C(Cl)C(Br)(CCl)CCC(Br)C(C)(C)Cl (centres undefined) | 1.89 | 7.06 µM and 3.6 µM |  | 14.2 |  | 7.66 |  | 24.6 | 0.223 | 6.34 µM and 1.38 µM | 2.01 | 3.73 | 2.62 | > 27.9 |  | 8.73 |  | 19.9 | 1.99 | 3.83 µM and 4.53 µM
COc1ccc(-c2nn(-c3ccc(NC(=O)c4ccc(Cl)c(Cl)c4)cc3)cc2-c2ccncc2)cc1Cl | > 50 | > 50 µM | 2.42 | > 50 | 1.62 | 17 | > 11.1 | > 50 | 3.63 | > 50 µM | > 20.3 | > 50 | 1.05 | 3.37 | 4.2 | > 50 | 0.979 | 2.67 | 3.23 | > 50 µM
CCSc1ncnc2c1ncn2C1OC(CO)C(O)C1O (centres undefined) | 0.449 | > 100 µM | 0.692 | > 71.3 | 1.47 | > 100 | 1.56 | > 100 | 0.146 | > 100 µM | 0.312 | > 79.7 | 0.975 | 34 | 8.24 | > 100 | 0.843 | > 43.1 | 0.729 | > 44.2 µM
C=CCCCCOc1ccccc1-c1cnc(OCCCCC=C)n1C | 5.51 | 23.9 µM | 5.38 | 28.9 | 5.13 | 20.6 | 3.5 | 23 | 4.27 | 20.4 µM | 3.21 | 10.1 | 4.13 | 23.7 | 7.39 | 38.1 | 4.03 | 20.1 | 4.15 | 18.7 µM
[Cl][Hg][c]1cc[c]([Hg][Cl])o1 | 2.25 | 12.9 µM | 6.83 | 28.5 | 13.5 | 28.4 | 1.7 | 3.1 | 0.295 | 8.75 µM |  |  | 3.71 | > 100 | 3.44 | 15.8 | 19.4 | 58.6 | 1.99 | 8.67 µM
COc1ccc(-c2nc3ccc(-c4nc5ccc(N6CCN(c7ccccc7)CC6)cc5[nH]4)cc3[nH]2)cc1OC | 5.98 | 18.6 µM | 1.59 | 3.26 | 2.04 | 6.58 | 2.2 | 4.42 |  | 2.54 µM | 2.04 | 3.64 | 2.25 | 4.93 | 1.93 | 3.59 | 1.73 | 4.02 | 3.31 | 10.9 µM
Cc1ccc(NC(=O)CC2CC2)cc1-c1ccc(C(=O)NCC2CC2)cc1 | > 25 | > 25 µM | > 25 | > 25 | > 25 | > 25 | > 25 | > 25 | > 25 | > 25 µM | > 25 | > 25 | > 25 | > 25 | > 25 | > 25 | > 25 | > 25 | > 25 | > 25 µM
